Laboratory results as given in patent US12552825B2 (Zikani Therapeutics, Inc., priority 2019, dated 2026).
Converted amounts (≈) assume the structure as drawn.

Assays:
Assay type in all cases: cell-based
K. pneumoniae MP-546 = test: MIC determination by CLSI broth dilution, K. pneumoniae MP-546; conditions: Klebsiella pneumoniae, MP546, CLSI broth dilution; strain MP-546
P. aeruginosa MP-3 = test: MIC determination by CLSI broth dilution, P. aeruginosa MP-3; conditions: Pseudomonas aeruginosa, MP3, strain MP-3
E. coli MP-4 = test: MIC determination by CLSI broth dilution, E. coli MP-4; conditions: Escherichia coli, MP4, CLSI broth dilution; strain MP-4
K. pneumoniae MP-648 = test: MIC determination by CLSI broth dilution, K. pneumoniae MP-648; conditions: Klebsiella pneumoniae, MP648, CLSI broth dilution; strain MP-648
S. aureus MP-12 = test: microbe, parasite or virus in culture; conditions: Staphylococcus aureus, MP12, read-out: MIC S. aureus MP-12
A. baumannii MP-15 = test: MIC determination by CLSI broth dilution, A. baumannii MP-15; conditions: Acinetobacter baumannii, MP15, strain MP-15, read-out: MIC A. baumanii MP-15

Compound	MIC (K. pneumoniae MP-546) [µg/mL]	MIC (P. aeruginosa MP-3) [µg/mL]	MIC (E. coli MP-4) [µg/mL]	MIC (K. pneumoniae MP-648) [µg/mL]	MIC (S. aureus MP-12) [µg/mL]	MIC (A. baumannii MP-15) [µg/mL]
CO[C@]1(C)C[C@@H](C)CN(C)[C@@H](CCCN2CCC(O)CC2)COC(=O)C(C)(C)C(=O)[C@H](C)[C@H]1O[C@@H]1O[C@H](C)C[C@H](N(C)C)[C@H]1O [Compound 92, (3S,6R,8R,9R,10R)-9-(((2S,3R,4S,6R)-4-(dimethylamino)-3-hydroxy-6-methyltetrahydro-2H-pyran-2-yl)oxy)-3-(3-(4-hydroxypiperidin-1-yl)propyl)-8-methoxy-4,6,8,10,12,12-hexamethyl-1-oxa-4-azacyclotridecane-11,13-dione]	4 to 32 (≈ 6.23 to 49.9 µM)	> 32	< 4	4 to 32 (≈ 6.23 to 49.9 µM)	> 32	> 32
CO[C@]1(C)C[C@@H](C)CN(C)[C@H](CCCN2CCCCC2)COC(=O)C(C)(C)C(=O)[C@H](C)[C@H]1O[C@@H]1O[C@H](C)C[C@H](N(C)C)[C@H]1O [Compound 93, (3R,6R,8R,9R,10R)-9-(((2S,3R,4S,6R)-4-(dimethylamino)-3-hydroxy-6-methyltetrahydro-2H-pyran-2-yl)oxy)-8-methoxy-4,6,8,10,12,12-hexamethyl-3-(3-(piperidin-1-yl)propyl)-1-oxa-4-azacyclotridecane-11,13-dione]	< 4	> 32	< 4	< 4	4 to 32 (≈ 6.39 to 51.1 µM)	> 32
CCCN1C[C@H](C)C[C@@](C)(OC)[C@H](O[C@@H]2O[C@H](C)C[C@H](N(C)C)[C@H]2O)[C@@H](C)C(=O)C(C)(C)C(=O)OC[C@H]1CC1CCN(C)CC1 [Compound 95, (3R,6R,8R,9R,10R)-9-(((2S,3R,4S,6R)-4-(dimethylamino)-3-hydroxy-6-methyltetrahydro-2H-pyran-2-yl)oxy)-8-methoxy-6,8,10,12,12-pentamethyl-3-((1-methylpiperidin-4-yl)methyl)-4-propyl-1-oxa-4-azacyclotridecane-11,13-dione]	< 4	> 32	< 4	< 4	4 to 32 (≈ 6.25 to 50 µM)	4 to 32 (≈ 6.25 to 50 µM)
CCCN1CCC(C[C@@H]2COC(=O)C(C)(C)C(=O)[C@H](C)[C@@H](O[C@@H]3O[C@H](C)C[C@H](N(C)C)[C@H]3O)[C@](C)(OC)C[C@@H](C)CN2CCC)CC1 [Compound 96, (3R,6R,8R,9R,10R)-9-(((2S,3R,4S,6R)-4-(dimethylamino)-3-hydroxy-6-methyltetrahydro-2H-pyran-2-yl)oxy)-8-methoxy-6,8,10,12,12-pentamethyl-4-propyl-3-((1-propylpiperidin-4-yl)methyl)-1-oxa-4-azacyclotridecane-11,13-dione]	< 4	> 32	< 4	4 to 32 (≈ 5.99 to 47.9 µM)	4 to 32 (≈ 5.99 to 47.9 µM)	> 32
CCN1C[C@H](C)C[C@@](C)(OC)[C@H](O[C@@H]2O[C@H](C)C[C@H](N(C)C)[C@H]2O)[C@@H](C)C(=O)C(C)(C)C(=O)OC[C@H]1CC1CCN(C)CC1 [Compound 98, (3R,6R,8R,9R,10R)-9-(((2S,3R,4S,6R)-4-(dimethylamino)-3-hydroxy-6-methyltetrahydro-2H-pyran-2-yl)oxy)-4-ethyl-8-methoxy-6,8,10,12,12-pentamethyl-3-((1-methylpiperidin-4-yl)methyl)-1-oxa-4-azacyclotridecane-11,13-dione]	< 4	> 32	< 4	< 4	4 to 32 (≈ 6.39 to 51.1 µM)	> 32
CO[C@]1(C)C[C@@H](C)CN(C)[C@@H](CCCN(C)C2CCCC2)COC(=O)C(C)(C)C(=O)[C@H](C)[C@H]1O[C@@H]1O[C@H](C)C[C@H](N(C)C)[C@H]1O [Compound 99, (3S,6R,8R,9R,10R)-3-(3-(cyclopentyl(methyl)amino)propyl)-9-(((2S,3R,4S,6R)-4-(dimethylamino)-3-hydroxy-6-methyltetrahydro-2H-pyran-2-yl)oxy)-8-methoxy-4,6,8,10,12,12-hexamethyl-1-oxa-4-azacyclotridecane-11,13-dione]	< 4	> 32	< 4	< 4	4 to 32 (≈ 6.25 to 50 µM)	> 32
CCCN1CCC(C[C@@H]2COC(=O)C(C)(C)C(=O)[C@H](C)[C@@H](O[C@@H]3O[C@H](C)C[C@H](N(C)C)[C@H]3O)[C@](C)(OC)C[C@@H](C)CN2CC)CC1 [Compound 102, (3R,6R,8R,9R,10R)-9-(((2S,3R,4S,6R)-4-(dimethylamino)-3-hydroxy-6-methyltetrahydro-2H-pyran-2-yl)oxy)-4-ethyl-8-methoxy-6,8,10,12,12-pentamethyl-3-((1-propylpiperidin-4-yl)methyl)-1-oxa-4-azacyclotridecane-11,13-dione]	< 4	> 32	< 4	< 4	4 to 32 (≈ 6.12 to 48.9 µM)	4 to 32 (≈ 6.12 to 48.9 µM)
CO[C@]1(C)C[C@@H](C)CN(C)[C@@H](CCCN2CCC(F)CC2)COC(=O)C(C)(C)C(=O)[C@H](C)[C@H]1O[C@@H]1O[C@H](C)C[C@H](N(C)C)[C@H]1O [Compound 103, (3S,6R,8R,9R,10R)-9-(((2S,3R,4S,6R)-4-(dimethylamino)-3-hydroxy-6-methyltetrahydro-2H-pyran-2-yl)oxy)-3-(3-(4-fluoropiperidin-1-yl)propyl)-8-methoxy-4,6,8,10,12,12-hexamethyl-1-oxa-4-azacyclotridecane-11,13-dione]	< 4	> 32	< 4	< 4	4 to 32 (≈ 6.21 to 49.7 µM)	> 32
CO[C@]1(C)C[C@@H](C)CN(C)[C@@H](CCCN2CCOCC2)COC(=O)C(C)(C)C(=O)[C@H](C)[C@H]1O[C@@H]1O[C@H](C)C[C@H](N(C)C)[C@H]1O [Compound 105, (3S,6R,8R,9R,10R)-9-(((2S,3R,4S,6R)-4-(dimethylamino)-3-hydroxy-6-methyltetrahydro-2H-pyran-2-yl)oxy)-8-methoxy-4,6,8,10,12,12-hexamethyl-3-(3-morpholinopropyl)-1-oxa-4-azacyclotridecane-11,13-dione]	4 to 32 (≈ 6.37 to 51 µM)	> 32	< 4	4 to 32 (≈ 6.37 to 51 µM)	4 to 32 (≈ 6.37 to 51 µM)	> 32
CO[C@]1(C)C[C@@H](C)CN(C)[C@@H](CCCN2CCCC2)COC(=O)C(C)(C)C(=O)[C@H](C)[C@H]1O[C@@H]1O[C@H](C)C[C@H](N(C)C)[C@H]1O [Compound 107, (3S,6R,8R,9R,10R)-9-(((2S,3R,4S,6R)-4-(dimethylamino)-3-hydroxy-6-methyltetrahydro-2H-pyran-2-yl)oxy)-8-methoxy-4,6,8,10,12,12-hexamethyl-3-(3-(pyrrolidin-1-yl)propyl)-1-oxa-4-azacyclotridecane-11,13-dione]	< 4	> 32	< 4	< 4	4 to 32 (≈ 6.54 to 52.3 µM)	> 32
CO[C@]1(C)C[C@@H](C)CN(C)[C@@H](CCCN2CC[C@@H](F)C2)COC(=O)C(C)(C)C(=O)[C@H](C)[C@H]1O[C@@H]1O[C@H](C)C[C@H](N(C)C)[C@H]1O [Compound 108, (3S,6R,8R,9R,10R)-9-(((2S,3R,4S,6R)-4-(dimethylamino)-3-hydroxy-6-methyltetrahydro-2H-pyran-2-yl)oxy)-3-(3-((R)-3-fluoropyrrolidin-1-yl)propyl)-8-methoxy-4,6,8,10,12,12-hexamethyl-1-oxa-4-azacyclotridecane-11,13-dione]	< 4	> 32	< 4	< 4	4 to 32 (≈ 6.35 to 50.8 µM)	> 32
CO[C@]1(C)C[C@@H](C)CN(C)[C@@H](CCCN2CCC(F)(F)CC2)COC(=O)C(C)(C)C(=O)[C@H](C)[C@H]1O[C@@H]1O[C@H](C)C[C@H](N(C)C)[C@H]1O [Compound 110, (3S,6R,8R,9R,10R)-3-(3-(4,4-difluoropiperidin-1-yl)propyl)-9-(((2S,3R,4S,6R)-4-(dimethylamino)-3-hydroxy-6-methyltetrahydro-2H-pyran-2-yl)oxy)-8-methoxy-4,6,8,10,12,12-hexamethyl-1-oxa-4-azacyclotridecane-11,13-dione]	4 to 32 (≈ 6.04 to 48.3 µM)	> 32	< 4	4 to 32 (≈ 6.04 to 48.3 µM)	4 to 32 (≈ 6.04 to 48.3 µM)	> 32
CO[C@]1(C)C[C@@H](C)CN(C)[C@H](C[C@H]2C[C@H](N(C)C)C2)COC(=O)C(C)(C)C(=O)[C@H](C)[C@H]1O[C@@H]1O[C@H](C)C[C@H](N(C)C)[C@H]1O [Compound 111, (3R,6R,8R,9R,10R)-9-(((2S,3R,4S,6R)-4-(Dimethylamino)-3-hydroxy-6-methyltetrahydro-2H-pyran-2-yl)oxy)-3-(((1r,3S)-3-(dimethylamino)cyclobutyl)methyl)-8-methoxy-4,6,8,10,12,12-hexamethyl-1-oxa-4-azacyclotridecane-11,13-dione]	< 4	> 32	< 4	< 4	4 to 32 (≈ 6.54 to 52.3 µM)	> 32
CO[C@]1(C)C[C@@H](C)CN(C)[C@@H](CCCN2Cc3ccccc3C2)COC(=O)C(C)(C)C(=O)[C@H](C)[C@H]1O[C@@H]1O[C@H](C)C[C@H](N(C)C)[C@H]1O [Compound 112]	< 4	> 32	< 4	< 4	< 4	4 to 32 (≈ 6.06 to 48.5 µM)
CCN1C[C@H](C)C[C@@](C)(OC)[C@H](O[C@@H]2O[C@H](C)C[C@H](N(C)C)[C@H]2O)[C@@H](C)C(=O)C(C)(C)C(=O)OC[C@H]1CCCN1CCCC1 [Compound 113, (3R,6R,8R,9R,10R)-9-(((2S,3R,4S,6R)-4-(dimethylamino)-3-hydroxy-6-methyltetrahydro-2H-pyran-2-yl)oxy)-4-ethyl-8-methoxy-6,8,10,12,12-pentamethyl-3-(3-(pyrrolidin-1-yl)propyl)-1-oxa-4-azacyclotridecane-11,13-dione]	< 4	> 32	< 4	< 4	< 4	> 32
